# Results as given in ChEMBL document CHEMBL5512616, “pH regulators and their inhibitors in tumor microenvironment” (Eur J Med Chem, 2024).
# Where “and” joins values, the source holds several entries; their conditions need not be identical. Equal values may be shown once.
# Key:
# Carbonic anhydrase 2 [1] = molecular target: T1, Carbonic anhydrase 2 (Homo sapiens, UniProt P00918)
# Carbonic anhydrase 9 [2] = molecular target: T2, Carbonic anhydrase 9 (Homo sapiens, UniProt Q16790)
# [3] = molecular target: T3, Sodium/hydrogen exchanger 1 (Homo sapiens, UniProt P19634)
# [4] = molecular target: T3, Sodium/hydrogen exchanger 1; remark: listed apart in the source
# [5] = molecular target: T4, Monocarboxylate transporter 1 (Homo sapiens, UniProt P53985)
# T4 sequence (P53985 whole entry): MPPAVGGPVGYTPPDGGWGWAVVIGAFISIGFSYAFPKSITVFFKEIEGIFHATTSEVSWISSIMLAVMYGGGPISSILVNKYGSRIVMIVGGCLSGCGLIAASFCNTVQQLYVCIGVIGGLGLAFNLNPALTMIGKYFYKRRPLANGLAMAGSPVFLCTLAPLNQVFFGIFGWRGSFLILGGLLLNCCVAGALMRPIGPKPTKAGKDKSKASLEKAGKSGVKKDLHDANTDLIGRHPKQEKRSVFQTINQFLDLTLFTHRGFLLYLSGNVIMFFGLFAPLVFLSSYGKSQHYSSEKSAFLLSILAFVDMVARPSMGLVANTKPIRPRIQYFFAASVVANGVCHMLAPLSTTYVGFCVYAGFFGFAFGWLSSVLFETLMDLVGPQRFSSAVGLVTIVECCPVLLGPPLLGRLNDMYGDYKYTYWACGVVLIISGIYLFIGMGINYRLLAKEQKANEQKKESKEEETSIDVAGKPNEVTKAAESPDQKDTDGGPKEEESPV
# MCF7 [6] = assay: cells; settings: Homo sapiens, MCF7, 96 h
# [7] = molecular target: T3, Sodium/hydrogen exchanger 1; format: cell-based, Platelet
# [8] = molecular target: T5, Monocarboxylate transporter 4 (Homo sapiens, UniProt O15427)
# T5 sequence (O15427 whole entry): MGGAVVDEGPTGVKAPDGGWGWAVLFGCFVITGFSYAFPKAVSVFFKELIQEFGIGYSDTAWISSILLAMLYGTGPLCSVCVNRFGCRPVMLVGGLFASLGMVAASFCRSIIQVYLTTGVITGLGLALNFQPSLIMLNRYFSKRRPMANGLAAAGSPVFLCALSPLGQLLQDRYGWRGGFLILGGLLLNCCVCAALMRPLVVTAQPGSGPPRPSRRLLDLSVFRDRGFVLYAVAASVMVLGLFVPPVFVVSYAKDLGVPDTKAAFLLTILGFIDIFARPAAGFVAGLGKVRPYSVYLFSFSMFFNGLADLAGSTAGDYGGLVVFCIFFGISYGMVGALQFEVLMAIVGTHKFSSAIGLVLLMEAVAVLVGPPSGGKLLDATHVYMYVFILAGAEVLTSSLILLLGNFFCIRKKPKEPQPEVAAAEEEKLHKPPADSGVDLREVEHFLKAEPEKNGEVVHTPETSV
# [9] = molecular target: T4, Monocarboxylate transporter 1; remark: listed apart in the source
# MCF7 [10] = assay: cells; settings: Homo sapiens
# A549 = assay: cells; settings: Homo sapiens
# Carbonic anhydrase 2 [11] = molecular target: T1, Carbonic anhydrase 2; remark: listed apart in the source
# HepG2 = assay: cells; settings: Homo sapiens
# [12] = molecular target: T4, Monocarboxylate transporter 1; remark: listed apart in the source
# Carbonic anhydrase 9 [13] = molecular target: T2, Carbonic anhydrase 9; remark: listed apart in the source
# Carbonic anhydrase 9 [14] = molecular target: T2, Carbonic anhydrase 9; remark: listed apart in the source
# [15] = molecular target: T4, Monocarboxylate transporter 1; remark: listed apart in the source
# [16] = molecular target: T5, Monocarboxylate transporter 4; remark: listed apart in the source
# [17] = molecular target: T6, Monocarboxylate transporter 1 (Rattus norvegicus, UniProt P53987)
# T6 sequence (P53987 whole entry): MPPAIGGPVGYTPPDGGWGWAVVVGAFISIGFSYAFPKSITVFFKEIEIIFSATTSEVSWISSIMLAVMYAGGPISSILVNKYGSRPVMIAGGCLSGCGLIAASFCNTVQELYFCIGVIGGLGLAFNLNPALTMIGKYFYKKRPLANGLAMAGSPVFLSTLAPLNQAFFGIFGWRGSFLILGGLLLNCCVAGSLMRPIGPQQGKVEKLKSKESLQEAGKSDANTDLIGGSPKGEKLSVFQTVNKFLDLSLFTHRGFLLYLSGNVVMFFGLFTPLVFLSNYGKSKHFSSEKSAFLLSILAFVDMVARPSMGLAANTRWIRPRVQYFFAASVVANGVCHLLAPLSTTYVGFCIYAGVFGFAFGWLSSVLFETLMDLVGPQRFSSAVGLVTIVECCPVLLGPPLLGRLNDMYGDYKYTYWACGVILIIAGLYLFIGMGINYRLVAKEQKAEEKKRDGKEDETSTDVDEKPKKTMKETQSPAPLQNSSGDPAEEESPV
# T3 sequence (P19634 whole entry): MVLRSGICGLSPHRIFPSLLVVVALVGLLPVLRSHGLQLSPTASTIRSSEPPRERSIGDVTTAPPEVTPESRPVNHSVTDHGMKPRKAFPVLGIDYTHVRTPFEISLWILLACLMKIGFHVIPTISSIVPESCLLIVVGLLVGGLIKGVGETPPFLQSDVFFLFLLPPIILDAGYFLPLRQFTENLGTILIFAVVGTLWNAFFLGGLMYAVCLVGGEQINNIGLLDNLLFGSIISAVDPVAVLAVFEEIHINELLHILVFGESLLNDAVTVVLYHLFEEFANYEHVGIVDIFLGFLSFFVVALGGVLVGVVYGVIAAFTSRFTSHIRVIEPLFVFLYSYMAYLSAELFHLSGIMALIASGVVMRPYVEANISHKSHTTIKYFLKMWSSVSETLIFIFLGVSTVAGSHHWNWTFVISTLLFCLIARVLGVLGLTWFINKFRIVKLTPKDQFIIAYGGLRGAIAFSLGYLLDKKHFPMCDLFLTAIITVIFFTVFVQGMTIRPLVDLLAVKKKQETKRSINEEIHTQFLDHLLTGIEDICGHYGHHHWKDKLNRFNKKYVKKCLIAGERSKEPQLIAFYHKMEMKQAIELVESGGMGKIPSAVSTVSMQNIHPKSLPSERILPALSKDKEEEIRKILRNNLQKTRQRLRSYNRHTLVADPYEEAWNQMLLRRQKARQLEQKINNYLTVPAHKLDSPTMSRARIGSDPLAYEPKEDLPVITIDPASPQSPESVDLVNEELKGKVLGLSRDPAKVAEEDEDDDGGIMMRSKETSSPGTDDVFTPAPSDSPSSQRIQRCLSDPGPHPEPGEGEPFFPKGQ
smiles,measurement,setting,value
Cc1cc(=O)oc2cc(OCCCCCNc3nc4cc(-c5ccccc5)ccc4o3)ccc12,Ki,Carbonic anhydrase 2 [1],> 10000 nM
same,Ki,Carbonic anhydrase 9 [2],32.2 nM
CC(C)CN(C)c1nc(N)c(C(=O)N=C(N)N)nc1Cl [5-(N-METHYL-N-ISOBUTYL)AMILORIDE],IC50,[3],174 nM
CCCCCOc1ccc(C(=O)CN2CCN(Cc3ccc(OC)c(OC)c3OC)CC2)cc1C(=O)N=C(N)N,IC50,[4],108 nM
CC(C)(OCc1nn(Cc2ccccc2)c2ccccc12)C(=O)O [BINDARIT],Ki,[5],> 500000 nM
C=C(C)[C@@H]1CC[C@]2(COS(N)(=O)=O)CC[C@]3(C)[C@H](CC[C@@H]4[C@@]5(C)CC[C@H](OS(N)(=O)=O)C(C)(C)[C@@H]5CC[C@]43C)[C@@H]12,IC50,MCF7 [6],10400 nM
CCN(c1nc(N)c(C(=O)NC(=N)N)nc1Cl)C(C)C [5-(N-ETHYL-N-ISOPROPYL)AMILORIDE],IC50,[7],500 nM
NC(N)=NC(=O)c1ccc2c(Br)cccc2c1,IC50,[4],10 nM
CC[C@](C)(OCc1cc(-c2cccc(OC3CC3)c2)n(-c2ccccc2N2CCC2)n1)C(=O)O,IC50,[8],0.36 nM
same,IC50,[9],64000 nM
NC(N)=NC(=O)c1cc(Cl)c(N)cc1N,IC50,[7],16000 nM
CC(=O)c1ccc(-c2cc3ccccc3oc2=O)nc1C,Ki,Carbonic anhydrase 2 [1],> 100000 nM
same,Ki,Carbonic anhydrase 9 [2],625 nM
CC(=O)C(C)/C(C)=N/NC(=O)C12CC3CC(CC(C3)C1)C2 (stereo not drawn),IC50,MCF7 [10],8350 nM
same,IC50,A549,4390 nM
same,Ki,Carbonic anhydrase 2 [11],256 nM
same,IC50,HepG2,7820 nM
COc1ccc(CN2CCN(CCOc3ccc(C(=O)NC(=N)N)cc3NC(=O)c3sccc3C)CC2)c(OC)c1OC,IC50,[4],68 nM
CC(=O)Nc1cc([N+](=O)[O-])c(Cl)cc1C(=O)N=C(N)N,IC50,[7],3600 nM
Nc1nn(C(=O)C23CC4CC(CC(C4)C2)C3)c(N)c1/N=N/c1ccccc1,IC50,MCF7 [10],4680 nM
same,IC50,A549,1550 nM
same,Ki,Carbonic anhydrase 2 [11],85.7 nM
same,IC50,HepG2,2700 nM
O=c1cc(-c2ccc(O)c(O)c2)oc2cc(O)cc(O)c12 [LUTEOLIN],IC50,[12],410 nM
NC(N)=NC(=O)c1cc(Cl)c(N)nc1N,IC50,[7],1300 nM
C=C(C)[C@@H]1CC[C@]2(COS(N)(=O)=O)CC[C@]3(C)[C@H](CC[C@@H]4[C@@]5(C)CC[C@H](OC(=O)NCC)C(C)(C)[C@@H]5CC[C@]43C)[C@@H]12,Ki,Carbonic anhydrase 9 [13],4.46 nM
same,IC50,MCF7 [6],10500 nM
Cc1cc(-n2cccc2)c(S(C)(=O)=O)cc1C(=O)NC(=N)N [ENIPORIDE],IC50,[7],80 nM
Cc1nc(-c2cc3ccccc3oc2=O)ccc1C(=O)/C=C/c1ccccc1,Ki,Carbonic anhydrase 2 [1],> 100000 nM
Cc1cccc(N2C(=O)CSC2c2cn(-c3ccccc3)nc2-c2cc3ccccc3oc2=O)c1 (stereo not drawn),Ki,Carbonic anhydrase 9 [14],61.5 nM
same,Ki,Carbonic anhydrase 2 [11],> 10000 nM
CC(C)N1C(=O)C(C)(C)Oc2ccc(C(=O)N=C(N)N)cc21,IC50,[4],120 nM
Cc1nc2c(cc1C(=O)N=C(N)N)CCCCC2,IC50,[4],17 nM
Cc1cccc2c1cc(C(=O)N=C(N)N)n2C,IC50,[4],100 nM
O=C(Nc1ccccc1C(=O)O)c1cc(S(=O)(=O)c2ccccc2)ccc1Cl,IC50,[15],85 nM
same,IC50,[16],> 50000 nM
NC(N)=NC(=O)c1nc(Cl)c(N)cc1N,IC50,[7],2300 nM
N#C/C(=C\c1c[nH]c2ccccc12)C(=O)O,IC50,[17],> 1000 nM
CC(C(=O)NCCOc1ccc2oc(=O)ccc2c1)c1ccc(-c2ccccc2)c(F)c1 (stereo not drawn),Ki,Carbonic anhydrase 2 [11],> 10000 nM
C=CCN1CCN(Cc2c(O)ccc3c(C)cc(=O)oc23)CC1,Ki,Carbonic anhydrase 2 [11],> 10000 nM
CC(C)(C)[Si](CCOc1ccc(/C=C(\C#N)C(=O)O)cc1)(c1ccccc1)c1ccccc1,IC50,[17],97 nM
NC(N)=NC(=O)c1cc2cccc3c2n1C(=O)CCCC3,IC50,[4],6 nM
CS(=O)(=O)c1cc(C(=O)N=C(N)N)ccc1N1CCCCC1,IC50,[7],100 nM and 800 nM
